Laboratory results: publication PMC3608355, “Amino Acid Derivatives as New Zinc Binding Groups for the Design of Selective Matrix Metalloproteinase Inhibitors” (Journal of Amino Acids, 2013)
Structures can show the parent of a compound that is named as a salt. Where two headings read alike, the source gives them in different places. Values belong to the molecule of their own block, whether it stands above or below them.

What was measured:
MMP-2 [1] = target: T1, MMP-2 (Homo sapiens, UniProt P08253); experiment: biochemical
T1 sequence (P08253 110-660): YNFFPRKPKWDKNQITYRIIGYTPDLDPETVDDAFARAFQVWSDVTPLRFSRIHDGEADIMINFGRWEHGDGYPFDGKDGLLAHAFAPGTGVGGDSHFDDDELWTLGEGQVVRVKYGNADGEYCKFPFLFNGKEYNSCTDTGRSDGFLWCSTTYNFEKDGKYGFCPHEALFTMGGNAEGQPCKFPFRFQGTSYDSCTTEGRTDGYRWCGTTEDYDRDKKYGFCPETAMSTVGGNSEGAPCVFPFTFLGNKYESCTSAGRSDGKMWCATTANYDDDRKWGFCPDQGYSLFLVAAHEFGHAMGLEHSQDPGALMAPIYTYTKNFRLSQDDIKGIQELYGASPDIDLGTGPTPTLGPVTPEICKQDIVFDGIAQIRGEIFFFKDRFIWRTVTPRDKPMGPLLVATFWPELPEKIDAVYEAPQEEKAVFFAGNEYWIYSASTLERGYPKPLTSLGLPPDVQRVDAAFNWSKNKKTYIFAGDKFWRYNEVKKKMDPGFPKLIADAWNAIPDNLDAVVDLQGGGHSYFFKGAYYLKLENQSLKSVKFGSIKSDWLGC

MMP-2 [2] = target: T1, MMP-2
MMP-8 = MMP-8 (Homo sapiens, UniProt P22894); experiment: MMP inhibition fluorometric assay, MMP-8; conditions: for ΔG exp MMP-8: experimental binding energy from activity data, racemic mixture tested
MMP-9 = MMP-9 (Homo sapiens, UniProt P14780); experiment: MMP inhibition fluorometric assay, MMP-9; conditions: for ΔG exp MMP-9: experimental binding energy from activity data, racemic mixture tested
MMP-1 = target: T2, MMP-1 (Homo sapiens, UniProt P03956); experiment: MMP inhibition fluorometric assay, MMP-1; conditions: for ΔG exp MMP-1: experimental binding energy from activity data, racemic mixture tested
T2 sequence (P03956 100-469): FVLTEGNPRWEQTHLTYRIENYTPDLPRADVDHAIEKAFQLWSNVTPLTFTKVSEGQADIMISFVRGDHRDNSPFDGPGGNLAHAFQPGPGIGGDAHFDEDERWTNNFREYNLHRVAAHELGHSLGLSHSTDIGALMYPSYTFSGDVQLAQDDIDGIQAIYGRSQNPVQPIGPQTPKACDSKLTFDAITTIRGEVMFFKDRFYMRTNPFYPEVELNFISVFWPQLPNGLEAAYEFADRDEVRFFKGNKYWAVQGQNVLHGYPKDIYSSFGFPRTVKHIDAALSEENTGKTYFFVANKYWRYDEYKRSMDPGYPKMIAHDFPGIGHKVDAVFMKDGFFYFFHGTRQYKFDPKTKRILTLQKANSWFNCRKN

[3] = experimental binding energy from activity data, chiral compounds tested as racemic mixture
[4] = ratio of IC50 values versus 25a

MMP-8, sequence (P22894 101-467): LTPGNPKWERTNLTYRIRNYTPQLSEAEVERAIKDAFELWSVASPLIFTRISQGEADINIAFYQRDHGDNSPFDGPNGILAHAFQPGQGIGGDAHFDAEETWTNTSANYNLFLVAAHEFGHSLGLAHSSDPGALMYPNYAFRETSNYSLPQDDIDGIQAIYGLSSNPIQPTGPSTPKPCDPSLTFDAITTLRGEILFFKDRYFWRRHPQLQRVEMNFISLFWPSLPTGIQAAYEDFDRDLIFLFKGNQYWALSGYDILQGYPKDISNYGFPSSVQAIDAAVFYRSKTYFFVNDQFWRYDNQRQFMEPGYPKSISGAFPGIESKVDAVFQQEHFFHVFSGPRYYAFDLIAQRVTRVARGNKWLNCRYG
MMP-9, sequence (P14780 107-707 limits assumed): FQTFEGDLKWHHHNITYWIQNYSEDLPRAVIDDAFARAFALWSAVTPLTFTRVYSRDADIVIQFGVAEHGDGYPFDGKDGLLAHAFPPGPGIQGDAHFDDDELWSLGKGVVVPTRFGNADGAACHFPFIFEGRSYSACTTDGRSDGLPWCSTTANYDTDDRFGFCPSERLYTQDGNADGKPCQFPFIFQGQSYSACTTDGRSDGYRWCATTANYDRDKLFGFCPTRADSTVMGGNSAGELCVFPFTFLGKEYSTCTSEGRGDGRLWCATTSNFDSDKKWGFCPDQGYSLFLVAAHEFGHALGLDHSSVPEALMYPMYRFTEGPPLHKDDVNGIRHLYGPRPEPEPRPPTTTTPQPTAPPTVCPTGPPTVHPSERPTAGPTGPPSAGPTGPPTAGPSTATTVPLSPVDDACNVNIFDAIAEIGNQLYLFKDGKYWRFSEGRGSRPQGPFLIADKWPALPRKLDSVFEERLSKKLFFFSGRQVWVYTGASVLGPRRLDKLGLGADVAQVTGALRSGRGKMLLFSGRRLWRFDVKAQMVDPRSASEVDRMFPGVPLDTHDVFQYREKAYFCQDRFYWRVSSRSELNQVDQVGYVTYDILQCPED

Compound: [N-]=[N+]=NCC(N)Cc1c[nH]cn1 (centres unmarked) [Compound 1l, 1-Azido-3-(1H-imidazol-4-yl)propan-2-amine Ditrifluoroacetate]
IC50 (MMP-2 [1]): 480 ± 25 µM

Compound: N[C@@H](CO)Cc1c[nH]cn1.O=C(O)C(F)(F)F.O=C(O)C(F)(F)F [1e R]
ΔG exp (binding energy toward MMP-2) (MMP-2 [2]; [3]): -4.565 kcal

Compound: N#CCC(N)CC#N.O=C(O)C(F)(F)F [Compound 1b, 3-Aminopentanedinitrile Trifluoroacetate]
ΔG exp (binding energy toward MMP-2) (MMP-2 [2]): -4.428 kcal
IC50 (MMP-2 [1]): 560 ± 52 µM

ΔG exp (binding energy toward MMP-2) (MMP-2 [2]; [3]): -4.837 kcal
IC50 (MMP-2 [1]): 280 ± 24 µM
Compound: NC(CO)CO [Compound 1a, 2-aminopropane-1,3-diol]

Compound: N#CC[C@H](N)CO.O=C(O)C(F)(F)F [1i S]
ΔG exp (binding energy toward MMP-2) (MMP-2 [2]; [3]): -4.210 kcal

Compound: CC(=O)NO [AHA, acetohydroxamic acid, reference compound]
IC50 (MMP-2 [2]; read-out: IC50 (μM ± SD), enzymatic inhibition of MMP-2, catalytic domain of MMP-2, ZBG library, value ± SD): 10000 ± 630 µM

Compound: [N-]=[N+]=NCC(N)CS (centres unmarked) [Compound 1j, 2-Amino-3-azidopropane-1-thiol Trifluoroacetate]
IC50 (MMP-2 [1]): 520 ± 57 µM

IC50 (MMP-8): 330 ± 21 µM
IC50 (MMP-9): 200 ± 15 µM
IC50 (MMP-1): 480 ± 30 µM
IC50 (MMP-2 [1]): 190 ± 8.7 µM
Compound: O=S(=O)(NC(CO)Cc1c[nH]cn1)c1ccc(Oc2ccccc2)cc1 (centres unmarked) [Compound 25e, N-(1-Hydroxy-3-(1H-imidazol-4-yl)propan-2-yl)-4-phenoxybenzenesulfonamide Hydrochloride]

Compound: Cl.O=S(=O)(N[C@H](CO)Cc1c[nH]cn1)c1ccc(Oc2ccccc2)cc1 [25e S]
ΔG exp MMP-8 (MMP-8): -4.740 kcal
ΔG exp MMP-9 (MMP-9): -5.042 kcal
ΔG exp MMP-1 (MMP-1): -4.524 kcal
ΔG exp (binding energy toward MMP-2) (MMP-2 [2]; [3]): -5.069 kcal

Compound: O=S(=O)(N[C@H](CO)CS)c1ccc(Oc2ccccc2)cc1 (racemic) [25d R]
ΔG exp MMP-8 (MMP-8): -6.870 kcal
ΔG exp MMP-9 (MMP-9): -6.705 kcal
ΔG exp MMP-1 (MMP-1): -4.224 kcal
ΔG exp (binding energy toward MMP-2) (MMP-2 [2]; [3]): -5.396 kcal

Compound: O=S(=O)(N[C@@H](CO)CS)c1ccc(Oc2ccccc2)cc1 [25d S]
ΔG exp MMP-8 (MMP-8): -6.870 kcal
ΔG exp MMP-9 (MMP-9): -6.705 kcal
ΔG exp MMP-1 (MMP-1): -4.224 kcal
ΔG exp (binding energy toward MMP-2) (MMP-2 [2]; [3]): -5.396 kcal

Compound: N[C@H](CO)CS.O=C(O)C(F)(F)F [1d R]
ΔG exp (binding energy toward MMP-2) (MMP-2 [2]; [3]): -4.319 kcal

Compound: N[C@H](CO)Cc1c[nH]cn1.O=C(O)C(F)(F)F.O=C(O)C(F)(F)F [1e S]
ΔG exp (binding energy toward MMP-2) (MMP-2 [2]; [3]): -4.565 kcal

melting point: 196 to 198 °C
Compound: NC(CS)Cc1c[nH]cn1 (centres unmarked) (as salt: TFA) [Compound 1g]

IC50 (MMP-2 [1]): 450 ± 23 µM
Compound: NC(CO)Cc1c[nH]cn1 (centres unmarked) [Compound 1e, 2-Amino-3-(1H-imidazol-4-yl)propan-1-ol Ditrifluoroacetate]

Compound: N#CCC(N)CO.O=C(O)C(F)(F)F (centres unmarked) [Compound 1i, 3-Amino-4-hydroxybutanenitrile Trifluoroacetate]
melting point: 131 to 133 °C
IC50 (MMP-2 [1]): 807 ± 98 µM

Compound: N#CCC(N)CS (centres unmarked) [Compound 1h, 3-Amino-4-mercaptobutanenitrile Trifluoroacetate]
IC50 (MMP-2 [1]): 500 ± 49 µM

Compound: N#CC[C@@H](N)CO.O=C(O)C(F)(F)F [1i R]
ΔG exp (binding energy toward MMP-2) (MMP-2 [2]; [3]): -4.210 kcal

IC50 (MMP-8): 9.1 ± 2.3 µM
fold more potent than 25a on MMP-8 (MMP-8; [4]): 10 fold
IC50 (MMP-9): 12 ± 4 µM
fold more potent than 25a on MMP-9 (MMP-9; [4]): 13 fold
IC50 (MMP-1): 819 ± 116 µM
IC50 (MMP-2 [1]): 110 ± 10 µM
Compound: O=S(=O)(NC(CO)CS)c1ccc(Oc2ccccc2)cc1 (centres unmarked) [Compound 25d, N-(1-Hydroxy-3-mercaptopropan-2-yl)-4-phenoxybenzenesulfonamide]

Compound: Cl.O=S(=O)(N[C@@H](CO)Cc1c[nH]cn1)c1ccc(Oc2ccccc2)cc1 (racemic) [25e R]
ΔG exp MMP-8 (MMP-8): -4.740 kcal
ΔG exp MMP-9 (MMP-9): -5.042 kcal
ΔG exp MMP-1 (MMP-1): -4.524 kcal
ΔG exp (binding energy toward MMP-2) (MMP-2 [2]; [3]): -5.069 kcal

Compound: O=C(O)C(F)(F)F.O=C(O)C(F)(F)F.[N-]=[N+]=NC[C@H](N)Cc1c[nH]cn1 [1l R]
ΔG exp (binding energy toward MMP-2) (MMP-2 [2]; [3]): -4.524 kcal

Compound: O=C(O)C(F)(F)F.O=C(O)C(F)(F)F.[N-]=[N+]=NC[C@@H](N)Cc1c[nH]cn1 [1l S]
ΔG exp (binding energy toward MMP-2) (MMP-2 [2]; [3]): -4.524 kcal

Compound: N[C@@H](CO)CS.O=C(O)C(F)(F)F [1d S]
ΔG exp (binding energy toward MMP-2) (MMP-2 [2]; [3]): -4.319 kcal

Compound: NC(CO)CS (centres unmarked) [Compound 1d, 2-Amino-3-mercaptopropan-1-ol Trifluoroacetate]
IC50 (MMP-2 [1]): 674 ± 88 µM

IC50 (MMP-8): 98 ± 8 µM
ΔG exp MMP-8 (MMP-8): -5.460 kcal
IC50 (MMP-9): 160 ± 15 µM
ΔG exp MMP-9 (MMP-9): -5.178 kcal
IC50 (MMP-1): 1030 ± 160 µM
ΔG exp MMP-1 (MMP-1): -4.074 kcal
ΔG exp (binding energy toward MMP-2) (MMP-2 [2]; [3]): -5.655 kcal
IC50 (MMP-2 [1]): 71 ± 1.9 µM
Compound: O=S(=O)(NC(CO)CO)c1ccc(Oc2ccccc2)cc1 [Compound 25a, N-(1,3-Dihydroxypropan-2-yl)-4-phenoxybenzenesulfonamide]

Compound: N#CC[C@H](N)CS.O=C(O)C(F)(F)F [1h S]
ΔG exp (binding energy toward MMP-2) (MMP-2 [2]; [3]): -4.497 kcal

Compound: NC(CS)CS.O=C(O)C(F)(F)F [Compound 1f, 2-Aminopropane-1,3-dithiol Trifluoroacetate]
ΔG exp (binding energy toward MMP-2) (MMP-2 [2]): -4.333 kcal
IC50 (MMP-2 [1]): 666 ± 90 µM

Compound: N#CC[C@@H](N)CS.O=C(O)C(F)(F)F [1h R]
ΔG exp (binding energy toward MMP-2) (MMP-2 [2]; [3]): -4.497 kcal
